Test system: MCA-207 fibrosarcoma tumor cells
Test: Growth of MCA-207 tumors (Example 11)
Type: in vivo, C57 mice
Conditions: ganciclovir with empty liposomes (data not shown)
Description: This example describes the treatment of tumors using the method of the invention. […] The general method is set out in FIG. 8.
24 female C57 mice were seeded with 100,000 MCA-207 fibrosarcoma tumor cells (provided by S. Rosenberg, National Cancer Institute, Frederick/Bethesda, MD) by intra-dermal injection on day zero. The tumor cells had been cultivated and prepared according to standard techniques using RPMI media with 10% Fetal Bovine Serum (see for example Current Protocols in Molecular Biology). Beginning on day 5, all animals were treated with the lipid/therapeutic nucleic acid formulation listed in the chart, supra. The formulation was delivered intravenously through the tail vein. 80 μg of pINEX-TK10 DNA were injected in a total volume of 200 μL. Treatments were administered on days 5, 7, 9, 11 and 13.
Beginning on day 5, all animals were treated with ganciclovir twice daily. 1 mg (˜50 mg/kg) were injected intra-peritoneally in a total volume of 200 μL PBS. Treatments continued twice daily for 12 days (see, FIG. 9(A)). Mice were monitored for tumor growth.

With `Nc1nc(O)c2ncn(COC(CO)CO)c2n1` [ganciclovir] the Tumor reduction was “no effect”.

Source: patent publication US20050118253A1, “Systemic delivery of serum stable plasmid lipid particles for cancer therapy” (Protiva Biotherapeutics, Inc., priority 1998, published 2005)
